Activity calls are given as the source filed them. The calls are words filed in the database; no cut-off is given here.
What was measured:
[1] = molecular target: T1, Tyrosine-protein phosphatase non-receptor type 1 (Homo sapiens) (UniProt P18031); test: Binding affinity to human PTP1B (1 to 405 residues) at 1:2 protein-ligand ratio
T1 sequence (whole entry): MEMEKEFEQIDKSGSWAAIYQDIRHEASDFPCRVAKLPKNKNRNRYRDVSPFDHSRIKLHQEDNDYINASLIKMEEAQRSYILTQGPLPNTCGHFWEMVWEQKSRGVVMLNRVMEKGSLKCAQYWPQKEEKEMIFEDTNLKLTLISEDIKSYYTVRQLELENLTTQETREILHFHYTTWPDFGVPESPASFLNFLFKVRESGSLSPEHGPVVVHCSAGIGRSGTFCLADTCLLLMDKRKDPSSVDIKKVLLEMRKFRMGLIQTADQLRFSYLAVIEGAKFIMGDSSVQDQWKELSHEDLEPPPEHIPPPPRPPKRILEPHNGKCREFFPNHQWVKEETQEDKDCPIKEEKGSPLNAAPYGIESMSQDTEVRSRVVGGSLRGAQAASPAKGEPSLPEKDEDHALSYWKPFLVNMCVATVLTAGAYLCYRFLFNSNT

[2] = molecular target: T1, Tyrosine-protein phosphatase non-receptor type 1 (Homo sapiens); test: Inhibition of wild type human HIS6-tagged PTP1B (1 to 400 residues) expressed in Escherichia coli Rosetta (DE3) pLysS cells using p-NPP substrate at 0.38 to 1 mM preincubated for 10 mins followed dby substrate addition and measured after 20 mins relative to control; details: dose mM 0.38-1, time 30.0 min
[3] = molecular target: T1, Tyrosine-protein phosphatase non-receptor type 1 (Homo sapiens)
Description: Binding affinity to wild type human HIS6-tagged PTP1B (1 to 400 residues) expressed in Escherichia coli Rosetta (DE3) pLysS by tryptophan-tyrosine residues based spectrometric method

[4] = Inhibition of Saccharomyces cerevisiae alpha-glucosidase using pNPG as substrate preincubated for 10 mins followed by substrate addition after 20 mins

| Ka [1] | inhibition [2] | Ka [3] | IC50 [4] [µM] | SMILES |
| --- | --- | --- | --- | --- |
| 3.3 10^5/M | – | – | – | CC(C)[C@@H](CC[C@@H](C)[C@H]1CC[C@H]2[C@@H]3[C@H](O)C[C@H]4C[C@@H](NCCCNCCCCNCCCN)CC[C@]4(C)[C@H]3CC[C@]12C)OS(=O)(=O)O |
| – | 50% | 1.3 10^4/M | 7.5 | C[C@H]1[C@H](C)CC[C@]2(C(=O)O)CC[C@]3(C)C(=CC[C@@H]4[C@@]5(C)CC[C@H](O)C(C)(C)[C@@H]5CC[C@]43C)[C@H]12 [URSOLIC ACID] |
| – | Active | – | – | CC(=O)O[C@H]1CC2=C(/C=C\C=C\[C@@]3(C)C[C@H](c4ccoc4)OC(=O)[C@@H]13)C(=O)OC2 |

Reference: ChEMBL document CHEMBL4699446, “Hydroxy-neo-Clerodanes and 5,10-seco-neo-Clerodanes from Salvia decora” (J Nat Prod, 2020)
